Results taken from PMC11435065, “Inhibition of P-Glycoprotein Asymmetrically Alters the In Vivo Exposure Profile of SGC003F: A Novel Guanylate Cyclase Stimulator” (Pharmaceuticals, 2024).
Several values for one entry are separate records, joined by “and”; a condition that tells them apart may be missing. Identical values can stand only once. Like-named read-outs stand apart in the source and are kept apart here.

Tests used:
[1] = In vitro metabolic stability in human liver microsomes; assay type: in vitro ADME; conditions: 1 µM, up to 60 min, NADPH or UDPGA
Method: In vitro incubation dependent on NADPH: SGC003F was added into rat and human liver microsomes diluted in PBS (100 mM, pH 7.3). NADPH was introduced into the system. The NADPH had been pre-equilibrated under the same conditions for 5 min to initiate the enzymatic reaction. The incubation mixture was meticulously prepared to achieve the following final concentrations: 1 µM for SGC003F, 0.5 mg/mL for the liver microsomal protein, and 1 mM for NADPH.
In vitro incubation dependent on UDPGA: rat and human liver microsomes diluted in PBS (100 mM, pH 7.3) were mixed with alamethicin and then placed on ice for 15 min before the addition of the working solution of SGC003F. After preincubation in a water bath at 37 °C for 5 min, UDPGA, which had been preincubated for 5 min was added to initiate the reaction. The final concentrations in the incubation system were as follows: 1 μM for SGC003F, 0.5 mg/mL for liver microsomal protein concentration, 5 mM for UDPGA, and 25 μg/mL for alamethicin.
Positive probe substrate assays were utilized to ensure normal activity of the incubation system. […] Finally, 60 μL supernatant was taken and diluted with 60 μL of 50% acetonitrile before being analyzed by LC-MS/MS.

[2] = Urinary and fecal cumulative excretion of SGC003F in rats with or without tariquidar; assay type: in vivo; conditions: rat, SGC003F p.o. 1 mg/kg; for dose excreted: male, SD, urine and faeces
Method: In total, 18 male SD rats were randomly divided into three groups, with 6 rats in each group. Group I: SGC003F (p.o., 1 mg/kg) + blank vehicle (control group); Group Ⅱ: SGC003F (p.o., 1 mg/kg) + tariquidar (i.v., 7.5 mg/kg); Group III: SGC003F (p.o., 1 mg/kg) + tariquidar (p.o., 15 mg/kg). The rats were fasted for 12 h before oral administration. After administration, the rats were placed immediately in a metabolic cage and resumed feeding for 2 h. Urine and fecal samples were collected at 0–4, 4–8, 8–12, 12–24, 24–36, 36–48, 48–72, 72–96, and 96–120 h after administration. Fecal samples were homogenized with acetonitrile at a ratio of 1:4 (w/v) and stored at −40 °C for analysis.

[3] = single, within 120 h, parent drug
[4] = tariquidar i.v. 7.5 mg/kg, 120 h
[5] = tariquidar p.o. 15 mg/kg, 120 h
[6] = with tariquidar i.v. 7.5 mg/kg, 120 h
[7] = with tariquidar p.o. 15 mg/kg, 120 h

Q: Which results are given for COC(=O)Nc1c(N)nc(-c2nn(Cc3sccc3F)c3ncc(F)cc23)nc1N [SGC003F]?
A: Metabolic stability (percentage of drug remaining over time) [1]: no significant metabolic elimination; dose excreted ([2]; oral, with tariquidar i.v. 7.5 mg/kg, 120 h, read-out: U + F (total urinary and fecal recovery)): 37.9 ± 5.99%; dose excreted ([2]; oral, with tariquidar p.o. 15 mg/kg, 120 h, read-out: U + F (total urinary and fecal recovery)): 36.7 ± 3.36%; dose excreted ([2]; po, 1 mg/kg, single, within 120 h, read-out: U + F (total urinary and fecal recovery of parent drug)): 71.5 ± 15.1%; Total cumulative urinary and fecal excretion relative to control group ([2]; after co-administration of tariquidar): 50%; F (cumulative fecal excretion) [2, 3]: 59.5 ± 14.4%; U (cumulative urinary excretion) [2, 3]: 11.9 ± 1.36%; F (fecal), Ratio 1 (with Tar (i.v.)/single) [2, 4]: 0.32; U + F, Ratio 1 (with Tar (i.v.)/single) [2, 4]: 0.53; U, Ratio 1 (with Tar (i.v.)/single) [2, 4]: 1.56; F (fecal), Ratio 2 (with Tar (p.o.)/single) [2, 5]: 0.19; U + F, Ratio 2 (with Tar (p.o.)/single) [2, 5]: 0.51; U, Ratio 2 (with Tar (p.o.)/single) [2, 5]: 2.13; F (cumulative fecal excretion) [2, 6]: 19.3% and 19.3 ± 2.31 %; U (cumulative urinary excretion) [2, 6]: 18.6% and 18.6 ± 4.37%; F (cumulative fecal excretion) [2, 7]: 11.5% and 11.5 ± 2.61 %; U (cumulative urinary excretion) [2, 7]: 25.3% and 25.3 ± 1.62%
